According to patent US12540164B2, “Peptides for treatment and prevention of nonalcoholic fatty liver disease and fibrosis” (UNIVERSITE DE STRASBOURG, priority 2017, dated 2026):
“Also recorded” adds a separate entry of the source. Ends that are not written are not given here.

What was measured:
LOXL2 [1] = test: Immunostaining of liver cryosections for LOXL2 (DIO-NASH); type: in vivo; conditions: DIO-NASH mice, 3 months after injection in subcutaneous adipose tissue; vs untreated
Method: (§1) For immunofluorescence experiments, liver and kidneys freshly sampled were included in Optimal Cutting Temperature Compound™ (OCT™, Catalog #4583, Tissue-Tek® OCT™, Sakura® Finetek, Torrance, California, USA) and cryosections of 7 μm were cut with Cryostat Leica CM1950. Cryosections were washed with 1×PBS and fixated in 4% formaldehyde solution for 15 min (Catalog #: F555-4L, Sigma-Aldrich, Saint-Louis, Missouri, USA) and then permeabilized with 0.02% SDS-PBS for 30 seconds. Blocking solution was 5%-Bovine Serum Albumin (BSA) in PBS. Primary antibodies were diluted in blocking solution and incubated overnight and indicated secondary antibodies were diluted in PBS for 30 minutes. Nuclei were counterstained with Hoechst (Catalog #: D1306, Invitrogen, Carlsbad, California, USA). Slides were then mounted with Vectashield® Mounting Medium (Catalog #: H-1000, Vector Laboratories, Burlingame, California, USA). Images were acquired and analyzed with Zeiss Imager.Z2 microscope equipped with either Zeiss AxioVision or Zeiss ZEN 2012 software (Carl Zeiss Inc., Oberkochen, Germany). Anti-Collagen IV antibody, ab6586 from Abcam and LOXL2 antibody, GTX105085 from GeneTex were used.

FABP4 = FABP4 ELISA on liver extracts; type: in vivo; conditions: 3 months after single injection, DIO male mice
Text: (§2) LOXL2 is the enzyme promoting the development of fibrotic lesions by favoring the polymerization of collagen and FABP4 is a protein involved in lipid metabolism whose level increases with increasing lipid deposition in the liver.
(§3) For the measurements on the liver extracts, the same kit for LOXL2 was used and for FABP4, the commercial kit used was the Elisa kit for Fatty Acid Binding Protein 4, Adipocyte (FABP4), SEB693Mu, Cloud Clone Corp.

[2] = system: fatty acid synthase (Fasn); test: Hepatic expression of de novo lipogenesis gene Fasn (q-PCR); type: in vivo; conditions: 11 days post injection in the adipose tissue; DIO male mice; vs control
Text: (§4) AdipoRed Staining of Liver Sections

ALT = test: STAM model of non-alcoholic steatohepatitis: plasma biochemistry (ALT); type: in vivo; conditions: STAM NASH mice, 25 μg per mouse SC once weekly 4-9 wks of age, sacrifice 9 wks; n = 6
Method: NASH was induced in 12 male mice by a single subcutaneous injection of 200 μg streptozotocin (STZ, Sigma-Aldrich, USA) solution 2 days after birth and feeding with high fat diet (HFD, 57 kcal % fat, Cat #HFD32, CLEA Japan, Inc., Japan) after 4 weeks of age. The peptide was administered subcutaneously in the adipose tissue in a volume of […] per mouse. The peptide was administered at a dose of 25 microgram (μg) per mouse once weekly. For plasma biochemistry, non-fasting blood was collected in polypropylene tubes with anticoagulant (Novo-Heparin, Mochida Pharmaceutical Co. Ltd., Japan) and centrifuged at 1,000×g for 15 minutes at 4° C. The supernatant was collected and stored at −80° C. until use. Plasma ALT level was measured by FUJI DRI-CHEM 7000 (Fujifilm, Japan). Six NASH mice were subcutaneously in the adipose tissue administered vehicle supplemented with ADPIF peptide at a dose of […] per mouse once weekly from 4 to 9 weeks of age.

[3] = system: Sterol regulatory element binding transcription factor 1 (Srebf1); test: Hepatic expression of Srebf1 (q-PCR); type: in vivo; conditions: 11 days post injection in the adipose tissue; DIO male mice; vs control
Text: as §4

[4] = STAM model of non-alcoholic steatohepatitis: Sirius red staining, fibrosis area; type: in vivo; conditions: STAM NASH mice
Method: NASH was induced in 12 male mice by a single subcutaneous injection of 200 μg streptozotocin (STZ, Sigma-Aldrich, USA) solution 2 days after birth and feeding with high fat diet (HFD, 57 kcal % fat, Cat #HFD32, CLEA Japan, Inc., Japan) after 4 weeks of age. The peptide was administered subcutaneously in the adipose tissue in a volume of […] per mouse. The peptide was administered at a dose of 25 microgram (μg) per mouse once weekly. To visualize collagen deposition, Bouin's fixed liver sections were stained using picro-Sirius red solution (Waldeck, Germany). For quantitative analysis of fibrosis area, bright field images of Sirius red-stained sections were captured around the central vein using a digital camera (DFC295; Leica, Germany) at 200-fold magnification, and the positive areas in 5 fields/section were measured using ImageJ software (National Institute of Health, USA). Six NASH mice were subcutaneously in the adipose tissue administered vehicle supplemented with ADPIF peptide at a dose of […] per mouse once weekly from 4 to 9 weeks of age.

Collagen IV = test: Immunostaining of liver cryosections for Collagen IV (DIO-NASH); type: in vivo; conditions: DIO-NASH mice, 3 months after injection in subcutaneous adipose tissue; vs untreated
Method: as §1

LOXL2 [5] = test: Circulating (plasma) LOXL2 ELISA; type: in vivo; conditions: 3 months post a unique injection; DIO-NASH mice
Text: (§5) For LOXL2 and GLP-1 measurements, the two commercially available kits: Lysyl Oxydase Like Protein 2 (LOXL2), Enzyme-linked Immunosorbent Assay Kit, Mus musculus, SEF552Mu, Cloud Clone Corp;

GLP-1 = test: Circulating GLP-1 enzyme immunoassay in plasma; type: in vivo; conditions: 11 days post single adipose tissue injection, high fat/high glucose diet male mice
Method: Mice were injected with a single dose of either scramble peptide or PATAD or ADPIF. 11 days post injection, the mice were euthanized, and plasma was obtained and used for determination of circulating GLP1 from mice with the indicated treatment.
as §5
RayBio Human/Mouse/Rat GLP-1 Enzyme Immunoassay Kit, EIA-GLP1, RayBiotech were used with the indicated procedures from the manufacturer.

[6] = system: lysophosphatidylcholines (LPCs); test: Lysophosphatidylcholines (LPC) lipid content in pancreas, adipose tissue, liver and plasma; type: in vivo, mice; conditions: 25 μg per mouse subcutaneous
Text: For the lipid composition in the different tissues and plasma, all samples were flashed frozen at the time of sampling, immediately after sacrifice, and were sent to the lipidomic core facility of Dijon, (Plateforme de Lipidomique-uBorgogne INSERM UMR866/Labex LipSTIC).

FATP2 = test: Expression levels of FATPs and FFARs in adipose tissue by real-time PCR after peptide injection; type: in vivo, mice; conditions: 11 days post single injection in subcutaneous adipose tissue, GAPDH reference, n=4 per group
Method: Mice were injected with a single dose of either scramble peptide or PATAD or ADPIF. 11 days post injection, the mice were euthanized and adipose tissue was sampled for RNA extraction followed by real-time PCR.
For this study, mice were on a C57/BL6 genetic background. All animals were housed in a temperature and humidity controlled facility, with a 12 h-light/12 h-dark cycle fed during the whole phase mice will be fed with a 60% high fat diet from Research Diets (D12492), and tap water will be provided ad libitum. Mice were fed and tested regularly for glucose tolerance test for their glucose tolerance and once they were glucose intolerant they were used for treatment.
All peptides were initially dissolved in DMSO and then diluted in sterile saline solution at a concentration of 10 ng/μL. 2.5 μL of each peptide (stapled or scrambled) were mixed and then injected directly in the subcutaneous adipose tissue in each mouse.

LOXL2 [7] = test: LOXL2 ELISA on liver extracts; type: in vivo; conditions: 3 months post unique injection in subcutaneous adipose tissue, DIO male mice, n=4
Text: as §2, §5, §3

VECTTREKEVLASLDKAAFLTQLHS (not fully specified (bridges)) [ADPIF, R and S carry the stapling, preferably 2-(7-octenyl)arginine and 2-(4-pentenyl)serine]
LOXL2 expression in liver (immunostaining) (LOXL2 [1]): effective in preventing the progression of fibrotic markers; also recorded: reduced | hepatic protein content of FABP4 (FABP4): more potent than PATAD; also recorded: significantly reduced | hepatic expression level of fatty acid synthase (Fasn) [2]: repressed; also recorded: significantly decreased | Plasma ALT (mean ± SD) (ALT): 54 ± 9 U/L | hepatic expression level of Srebf1 [3]: repressed; also recorded: significantly decreased | Sirius red-positive area (mean ± SD) ([4]; 25 μg per mouse SC once weekly 4-9 wks of age, sacrifice 9 wks, n = 6): 0.62 ± 0.17% | fibrosis area (Sirius red-positive area) compared with the Vehicle group ([4]; 25 μg per mouse SC once weekly 4-9 wks, Student's t-test): significant decrease | Collagen IV expression in liver (immunostaining) (Collagen IV): effective in preventing the progression of fibrotic markers; also recorded: reduced | circulation (plasma) levels of LOXL2 (LOXL2 [5]): significantly reduced; also recorded: reduced the LOXL2 levels by half | circulating levels of GLP-1 (GLP-1): restored high circulating levels of GLP1, with ADPIF inducing a greater increase than PATAD; also recorded: more active than PATAD peptide; also recorded: restore GLP1 circulating levels back to lean controls | level of LPC 18:2 ([6]; adipose tissue and liver): most prominent reduction; also recorded: mostly reduced | levels of lysophosphatidylcholines (LPCs) in the tissues analyzed ([6]; adipose tissue, liver, plasma, euthanized 1 week after last injection): effective in reducing selective LPCS; also recorded: selective decrease of certain LPCs | FATP2 expression level in the adipose tissue (FATP2): more active than PATAD peptide | hepatic protein content of LOXL2 (LOXL2 [7]): more potent than PATAD; also recorded: significant decrease
